# Values of other authors as cited in patent publication US20100278900A1, “CHLORINE DIOXIDE BASED GUM AND CANDY” (BASF Corporation, priority 2009, published 2010).
# Conditions: in the absence of traditional abrasives
smiles,measurement,value
[O][Cl+][O-] [chlorine dioxide],polishing effect,polishing effect
